Measured values reported in patent US4642379A, “Intermediates for anticonvulsant agents” (Eli Lilly and Company, priority 1985, dated 1987).

System: not given
Assay: not given
Details: man; cited from earlier work

Row | SMILES | plasma level at which ataxia is obvious [ng/mL] | plasma level at which lethargy is apparent | plasma level at which nystagmus is seen | plasma level at which seizures are controlled [µg/mL]
1 | O=C1NC(=O)C(c2ccccc2)(c2ccccc2)N1 [phenytoin] | 30000 | about 40 mcg/ml | around 20 mcg/ml | ≥ 10

System: electroshock induced convulsion
Assay: electroshock induced convulsion inhibition assay (E.S.)
Format: in vivo, mice (Cox standard strain albino male)
Details: Mus musculus; oral dose (gavage), mice; 0.1 second, 50 milliampere electroshock through corneal electrodes; at time of optimal response
Description: In the elctroshock induced convulsion inhibition assay (E.S.), the compound to be tested was suspended in acacia and administered by gavage to each of ten Cox standard strain albino male mice (18-24 g) at the dose level being investigated. […] The animals were examined and evaluated immediately after the electroshock for the occurrence of clonic, flexor tonic, or extensor tonic convulsions, or death and the ED50 was determined for each compound as the dose which inhibited the occurrence of extensor tonic convulsions in one half of the animals immediately after the electroshock.

Row | SMILES | ED50 [mg/kg]
2 | CCN(CC)CC(=O)Nc1ccc(C(=O)Nc2c(C)cccc2C)cc1.O=C(O)C(=O)O [Example 14, 4-([(Diethylamino)acetyl]amino)-N-(2,6-dimethylphenyl)benzamide ethanedioate] | 3.6
3 | CCNCC(=O)Nc1ccc(C(=O)NC(C)c2ccccc2)cc1.Cl (stereo not drawn) [Example 22, 4-([(Ethylamino)acetyl]amino)-N-(1-phenylethyl)benzamide hydrochloride] | 28
4 | CNCC(=O)Nc1ccc(C(=O)Nc2c(C)cccc2C)cc1.O=C(O)C(=O)O [Example 13, N-(2,6-dimethylphenyl)-4-([(methylamino)acetyl]amino)benzamide ethanedioate] | 6.3
5 | CC(=O)Nc1ccc(C(=O)Nc2c(C)cccc2C)cc1 [Example 1, 4-(Acetylamino)-N-(2,6-dimethylphenyl)benzamide] | 3.6
6 | Cc1cccc(C)c1NC(=O)c1ccc(NC(=O)C(C)N2CCCC2)cc1 (stereo not drawn) [Example 20] | 42.5
7 | Cc1cccc(C)c1NC(=O)c1ccc(NC(=O)CCN2CCCC2)cc1 [Example 19, N-[4-([(2,6-Dimethylphenyl)amino]carbonyl)phenyl]-1-pyrrolidinepropanamide] | 26.9
8 | Cc1cccc(C)c1NC(=O)c1ccc(NC(=O)CN(C)C)cc1 [Example 12, 4-([(Dimethylamino)acetyl]amino)-N-(2,6-dimethylphenyl)benzamide] | 8
9 | CCC(=O)Nc1ccc(C(=O)Nc2c(C)cccc2C)cc1 [Example 2, N-(2,6-dimethylphenyl)-4-[(1-oxopropyl)amino]benzamide] | 10.5
10 | Cc1cccc(C)c1NC(=O)c1ccc(NC(=O)CN2CCN(C)CC2)cc1 [Example 17, N-[4-([(2,6-Dimethylphenyl)amino]carbonyl)phenyl]-4-methyl-1-piperazineacetamide] | > 112
11 | Cc1cccc(C)c1NC(=O)c1ccc(NC(=O)C(C)C)cc1 [Example 3, N-(2,6-dimethylphenyl)-4-[(2-methyl-1-oxopropyl)amino]benzamide] | 8.2
12 | CCNCC(=O)Nc1ccc(C(=O)Nc2c(C)cccc2C)cc1 [Example 23, N-(2,6-Dimethylphenyl)-4-([(ethylamino)acetyl]amino)benzamide] | 3.2
13 | Cc1cccc(C)c1NC(=O)c1ccc(NC(=O)CN2CCCCC2)cc1 [Example 15, N-[4-([(2,6-Dimethylphenyl)amino]carbonyl)phenyl]-1-piperidineacetamide] | 9.5
14 | CC(=O)Nc1ccc(C(=O)NC(C)c2ccccc2)cc1 (stereo not drawn) [Example 6, 4-(Acetylamino)-N-(1-phenylethyl)benzamide] | 54
15 | CC(=O)Nc1ccc(C(=O)Nc2c(C)cccc2C)cc1C [Example 11, 4-(Acetylamino)-N-(2,6-dimethylphenyl)-3-methylbenzamide] | 4.5
16 | Cc1cccc(C)c1NC(=O)c1ccc(NC(=O)CN2CCOCC2)cc1 [Example 18, N-[4-([(2,6-Dimethylphenyl)amino]carbonyl)phenyl]-4-morpholineacetamide] | 17.5
17 | CC(=O)Nc1ccc(C(=O)N[C@@H](C)c2ccccc2)cc1 [Example 4, (S)-4-(acetylamino)-N-(1-phenylethyl)benzamide] | 22.2
18 | Cc1cccc(C)c1NC(=O)c1ccc(NC(=O)CN2CCCCCC2)cc1 [Example 21, N-[4-([(2,6-Dimethylphenyl)amino]carbonyl)phenyl]hexahydro-1-H-azepine-1-acetamide] | 5.1
19 | Cc1cccc(C)c1NC(=O)c1ccc(NC(=O)CN2CCCC2)cc1 [Example 16, N-[4-([(2,6-Dimethylphenyl)amino]carbonyl)phenyl]-1-pyrrolidineacetamide] | 3.75

Same assay, conditions: oral dose (gavage), mice; 0.1 second, 50 milliampere electroshock through corneal electrodes; at time of optimal response

Row | SMILES | Electroshock ED50 (mg/kg)
20 | CC(=O)Nc1ccc(C(=O)N[C@H](C)c2ccccc2)cc1 [Example 5] | ca. 100 mg/kg

Same assay, conditions: time between oral dosing and electroshock

Row | SMILES | Time After dosing (minutes) providing an optimal response [min]
21 | CC(=O)Nc1ccc(C(=O)N[C@H](C)c2ccccc2)cc1 [Example 5] | 60
